Values joined by “and” are separate entries in the source; they are usually repeats but may differ in a detail not shown here. Equal entries are not always repeated.
How the values were obtained:
E. coli IH3080 [1] = test: Growth inhibition around wells on LB agar plates; format: cell-based, Escherichia coli; details: 10 μg of compound per well
In short: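 Growth inhibition of encapsulated E. coli IH3080 (K1:O018) was assessed on LB agar plates. A suspension of about 10^8 cells/ml in 0.9% NaCl, made from an overnight LB agar culture, was spread across the plate surface and the excess removed. After drying, 2 mm wells were drilled, with 0.9% NaCl as control. Following 18 h at 37° C., inhibition zone diameters around wells were converted to areas in square mm.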

[2] = system: Ps. aeruginosa ATCC 27853; test: Sensitization to rifampin: growth inhibition around wells on LB plates containing rifampin; format: cell-based, Pseudomonas aeruginosa; details: 4 μg
E. coli ATCC25922 [3] = test: Growth inhibition around wells on LB agar plates; format: cell-based, Escherichia coli
Description: (§1) From an overnight-grown culture of IH3080 on LB agar, a suspension of approx. 10^8 cells/ml was prepared in 0.9% NaCl. Aliquots of this suspension were then pipetted on the agar plates and the plates were gently shaken to spread the suspension evenly on the entire surface of the plate. Thereafter, the unabsorbed part of the suspension was removed by using a Pasteur pipette. After the surface had dried, small wells (diameter, 2 mm) were drilled on the plates (five wells per plate) by using a sterile sharp-edged narrow metal tube, single-use pipette tip, and vacuum suction. An alternative method used a swab to spread the inoculum. Samples (4 μl and 10 μl) of the peptide solution in 0.9% NaCl (at concentrations of 1 μg/ml and 0.1 μg/ml) were then pipetted to the wells and the sample fluids were allowed to absorb. Controls included 0.9% NaCl solution without the compound to be tested. The plates were then incubated for 18 h at 37° C. whereafter the diameters of growth inhibition zones around each well were measured; the diameter of the well itself was not reduced. Finally, the diameters were converted to surface areas of growth inhibition (in square mm).
(§2) The susceptibility of eleven Gram-negative bacterial strains (nine different species) to NAB734 and polymyxin B was compared by using the susceptibility determination method described in Example 2. The strains included those belonging to the species of Serratia marcescens and Proteus mirabilis, both species generally known to be resistant to polymyxin. Furthermore, the susceptibility determination was also performed by using the Gram-positive bacterium, Staphylococcus aureus, also generally known to be polymyxin-resistant. Ten of the strains originated from ATCC (American Type Culture Collection, Manassas, Va., U.S.A.), and one from CCUG (Culture Collection of University of Gothenburg, Sweden). The source of E. coli IH3080 has been described in Example 2. Polymyxin B sulfate was from Sigma-Aldrich (St. Louis, Mo., USA).

S. marcescens ATCC8100 = test: Growth inhibition around wells on LB agar plates; format: cell-based, Serratia marcescens
Description: as §1, §2

K. pneumoniae CCUG45421 = test: Growth inhibition around wells on LB agar plates; format: cell-based, Klebsiella pneumoniae
Description: as §1, §2

K. pneumoniae ATCC13883 [4] = test: Growth inhibition around wells on LB agar plates; format: cell-based, Klebsiella pneumoniae
Description: as §1, §2

E. cloacae ATCC23355 [5] = test: Growth inhibition around wells on LB agar plates; format: cell-based, Enterobacter cloacae
Description: as §1, §2

S. aureus ATCC 25923 = test: Growth inhibition around wells on LB agar plates; format: cell-based, Staphylococcus aureus
Description: as §1, §2

E. coli IH3080 [6] = test: Sensitization to rifampin: growth inhibition around wells on LB plates containing rifampin; format: cell-based, Escherichia coli; details: 4 μg of compound
K. oxytoca ATCC13182 = test: Growth inhibition around wells on LB agar plates; format: cell-based, Klebsiella oxytoca
Description: as §1, §2

A. baumannii ATCC 19606 = test: Sensitization to rifampin: growth inhibition around wells on LB plates containing rifampin; format: cell-based, Acinetobacter baumannii; details: 4 μg
[7] = system: Acinetobacter baumannii ATCC 19606; test: Growth inhibition around wells on LB agar plates; format: cell-based; details: A. baumannii ATCC 19606
[8] = system: Pseudomonas aeruginosa ATCC 27853; test: Growth inhibition around wells on LB agar plates; format: cell-based; details: Ps. aeruginosa ATCC 27853
In short: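 Activity against Pseudomonas aeruginosa ATCC 27853 was assessed by agar well diffusion on LB plates. A suspension of about 10^8 cells/ml in 0.9% NaCl was spread over the agar and the excess removed. Once the surface had dried, 2 mm wells were drilled and filled with peptide dissolved in 0.9% NaCl. Plates were incubated 18 h at 37° C, and inhibition zone diameters were converted to areas in square mm.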

C. freundii ATCC8090 = test: Growth inhibition around wells on LB agar plates; format: cell-based, Citrobacter freundii
Description: as §1, §2

P. mirabilis ATCC29906 = test: Growth inhibition around wells on LB agar plates; format: cell-based, Proteus mirabilis
Description: as §1, §2

E. coli IH3080 [9] = test: E-test MIC with or without NAB7061 (4 μg/ml), Mueller-Hinton agar; format: cell-based, Escherichia coli
Description: (§3) MICs were determined by using E-strips (Biodisk Ltd., Solna, Sweden) according to the manufacturer's instructions.
(§4) The strains originated from ATCC (11 strains), CCUG (11 strains), and NCTC (The National Collection of Type Cultures, Colindale, U.K.; 2 strains). Eight strains (the F-strains) were purchased from Mobidiag Ltd., Helsinki, Finland.

E. cloacae ATCC23355 [10] = test: as above; format: cell-based, Enterobacter cloacae
Description: as §3, §4

[11] = system: E. coli (ATCC25922 and IH3080), K. pneumoniae ATCC13883, and E. cloacae ATCC23355; test: E-test sensitization by NAB7061, range over the tested strains; format: cell-based; details: four tested strains
Description: as §3

E. coli IH3080 (K1:O18) = test: Experimental E. coli peritonitis model in mice (Example 12); format: in vivo
Description: A suspension of E. coli IH3080 (K1:O18) in saline (0.9% NaCl) was prepared from an overnight culture on a blood agar plate (Statens Serum Institut, Copenhagen, Denmark). All mice (female NMR1 from Harlan Scandinavia, Allerød, Denmark; weight, 25-30 g) were inoculated intraperitoneally with 0.5 ml of the suspension containing 0.96×10^6 CFU per ml in the lateral lower quadrant of the abdomen. At 1 h, the CFU count was determined from three mice and the remaining mice (four mice per group) were treated with a subcutaneous injection of 0.2 ml of erythromycin solution in saline (corresponding to 5 mg/kg body weight) or NAB7061 solution in saline (corresponding to 5 mg/kg body weight), or both erythromycin and NAB7061 (corresponding to 5 mg/kg body weight of both drugs; given at two separate sites). Control group received two 0.2 ml injections of saline. At 4.5 h postinfection, all mice were anaesthetized with CO2 and sacrificed. Sterile saline (2 ml) was injected intraperitoneally and the abdomen was gently massaged before it was opened and the fluid sampled. Appropriate dilutions of the fluid were plated on blood agar plates, the plates were incubated overnight, and the colonies were counted.

E. coli ATCC25922 [12] = details: E. coli ATCC25922
Description: as §3, §4

K. pneumoniae ATCC13883 [13] = details: K. pneumoniae ATCC13883
Description: as §3, §4

Molecule: OA-Thr-DSer-cy[Dab-Dab-DPhe-Thr-Dab-Dab-Thr-] [NAB 734]
- growth inhibition around a well (E. coli IH3080 [1]): 177 square millimeters
- growth inhibition around a well in the presence of rifampin ([2]; rifampin 0 μg/ml): 13 square millimeters
- growth inhibition around a well in the presence of rifampin ([2]; rifampin 0.3 μg/ml): 20 square millimeters
- growth inhibition around a well (E. coli ATCC25922 [3]; 4 μg): 133 square millimeters
- growth inhibition around a well (E. coli ATCC25922 [3]; 10 μg): 177 square millimeters
- growth inhibition around a well (S. marcescens ATCC8100; 4 μg): 0 square millimeters
- growth inhibition around a well (S. marcescens ATCC8100; 10 μg): 0 square millimeters
- growth inhibition around a well (K. pneumoniae CCUG45421; 4 μg): 64 square millimeters
- growth inhibition around a well (K. pneumoniae CCUG45421; 10 μg): 104 square millimeters
- growth inhibition around a well (K. pneumoniae ATCC13883 [4]; 4 μg): 64 square millimeters
- growth inhibition around a well (K. pneumoniae ATCC13883 [4]; 10 μg): 113 square millimeters
- growth inhibition around a well (E. cloacae ATCC23355 [5]; 4 μg): 133 square millimeters
- growth inhibition around a well (E. cloacae ATCC23355 [5]; 10 μg): 177 square millimeters
- growth inhibition around a well (S. aureus ATCC 25923; 4 μg): 0 square millimeters
- growth inhibition around a well (S. aureus ATCC 25923; 10 μg): 0 square millimeters
- growth inhibition around a well in the presence of rifampin (E. coli IH3080 [6]; rifampin 0 μg/ml): 113 square millimeters
- growth inhibition around a well in the presence of rifampin (E. coli IH3080 [6]; rifampin 0.1 μg/ml): 154 square millimeters
- growth inhibition around a well in the presence of rifampin (E. coli IH3080 [6]; rifampin 1.0 μg/ml): 201 square millimeters
- growth inhibition around a well (K. oxytoca ATCC13182; 4 μg): 95 square millimeters
- growth inhibition around a well (K. oxytoca ATCC13182; 10 μg): 143 square millimeters
- growth inhibition around a well in the presence of rifampin (A. baumannii ATCC 19606; rifampin 0 μg/ml): 38 square millimeters
- growth inhibition around a well in the presence of rifampin (A. baumannii ATCC 19606; rifampin 0.1 μg/ml): 201 square millimeters
- growth inhibition around a well in the presence of rifampin (A. baumannii ATCC 19606; rifampin 0.3 μg/ml): 283 square millimeters
- growth inhibition around a well ([7]; 4 μg): 38 square millimeters and 57 square millimeters
- growth inhibition around a well ([7]; 10 μg): 95 square millimeters and 79 square millimeters
- growth inhibition around a well ([8]; 4 μg): 13 square millimeters
- growth inhibition around a well ([8]; 10 μg): 50 square millimeters
- growth inhibition around a well (C. freundii ATCC8090; 4 μg): 133 square millimeters
- growth inhibition around a well (C. freundii ATCC8090; 10 μg): 177 square millimeters
- growth inhibition around a well (P. mirabilis ATCC29906; 4 μg): 0 square millimeters
- growth inhibition around a well (P. mirabilis ATCC29906; 10 μg): 0 square millimeters

Molecule: CC[C@H]1OC(=O)[C@H](C)[C@@H](O[C@H]2C[C@@](C)(OC)[C@@H](O)[C@H](C)O2)[C@H](C)[C@@H](O[C@@H]2O[C@H](C)C[C@H](N(C)C)[C@H]2O)[C@](C)(O)C[C@@H](C)C(=O)[C@H](C)[C@@H](O)[C@]1(C)O [Erythromycin]
- Sensitization factor to antibiotic (MIC without / with 4 μg/ml of NAB 7061) (E. coli IH3080 [9]): 32-42
- Sensitization factor to antibiotic (MIC without / with 4 μg/ml of NAB 7061) (E. cloacae ATCC23355 [10]): 21-43
- Sensitization factor to antibiotic at 4 μg/ml of NAB7061, range over the tested strains [11]: 21-48
- CFU counts in peritoneal fluid (E. coli IH3080 (K1:O18); 4.5 h postinfection ([…] after treatment), 5 mg/kg subcutaneous): 8.9 (±6.4)×10^6 per ml
- factor by which the bacterial count increased (E. coli IH3080 (K1:O18); from 1 h to 4.5 h postinfection): 12
- Sensitization factor to antibiotic (MIC without / with 4 μg/ml of NAB 7061) (E. coli ATCC25922 [12]): 32-48
- Sensitization factor to antibiotic (MIC without / with 4 μg/ml of NAB 7061) (K. pneumoniae ATCC13883 [13]): 24-48
